Key:
[1] = system: neurons in hippocampal CA1 region and cortex; experiment: Brain histology (Nissl and Fluoro-Jade B staining) at 72 hours post-resuscitation; type: in vivo, rat; details: for number of neurons in the hippocampus (Nissl staining), % of control values: 10-minute cardiac arrest; for degenerating cells in the cortex (FJB staining), fold increase compared with control value: vehicle seven-fold
Procedure: (§1) The study was conducted using adult male Sprague-Dawley rats (400-500 g, Charles River Laboratories, Wilmington, MA) utilizing procedures for asphyxia-induced cardiac arrest and cardiopulmonary resuscitation (CPR). Briefly, asphyxial cardiac arrest was induced by stopping ventilation after injecting vecuronium bromide (2 mg/kg). After 10 or 14 minutes of asphyxia-cardiac arrest, ventilation was restarted with chest compressions. Typically, rats achieve ROSC within 1 minute after the initiation of CPR. Rats were extubated 2 hours after ROSC. Blood samples were collected from the femoral artery at baseline and multiple time points during cardiac arrest or postresuscitation. Plasma was separated using centrifugation at 1,000×g for 10 minute and stored at −80° C. Brain tissue was harvested from animals that survived for 72 hours after perfusion with saline and fixed with 4% paraformaldehyde.
Plasma phospholipids were analyzed using plasma samples obtained from humans and rats following our established high-performance liquid chromatography-mass spectrometry (HPLC-MS) method. For brain histology, serial coronal sections (14 μm) were prepared from the fixed brain tissue using a cryostat (CM1900, Leica, Germany). The sections were used for Nissl staining to determine the number of surviving neurons in hippocampal CA1 region or Fluoro-Jade B (FJB) staining to count the number of degenerative neurons in the cortex.

[2] = system: rats after 12 minutes of asphyxia-induced cardiac arrest; experiment: 12 minutes of asphyxia-induced cardiac arrest rat model (survival, plasma troponin I, SSEP); type: in vivo; details: 12 minutes of cardiac arrest
Procedure: as §1
The therapeutic effects of LPC species as well as combination of all three species was then tested using 12 minutes of cardiac arrest, which induces more severe injury than 10 minutes of cardiac arrest. […] Also compared was the plasma troponin I level to assess the effects of individual LPC species LPC (18:0), LPC (18:1), LPC (22:6) and the LPC Combination for heart function (see FIG. 8 and FIG. 9 respectively). […] Since these rats are severely injured and mNDS are not appropriate to measure their brain function, we used SSEP to compare the brain function between LPC (18:1) and LPC combination groups.

[3] = system: rats after 10 minutes of asphyxia-induced cardiac arrest; experiment: Rat survival and neurologic function (mNDS) after 10-minute asphyxia-induced cardiac arrest with LPC supplementation; type: in vivo; details: for rat survival for 72 hr after resuscitation (Kaplan-Meier) / modified neurologic deficit score (mNDS) at 24 hours / modified neurologic deficit score (mNDS) at 72 hours: 10-minute cardiac arrest; for rat survival for 72 hr after resuscitation (Kaplan-Meier): 6 mg/kg LPC via femoral vein 1 minute after ROSC, vs vehicle; for modified neurologic deficit score (mNDS) at 24 hours / modified neurologic deficit score (mNDS) at 72 hours: surviving rats, 6 mg/kg, 100% = perfect score
Procedure: as §1
To test the beneficial effect of LPC supplementation, LPC (18:1) was first administered because it was the only commercially available species out of the four LPC species decreased after 10 minute of cardiac arrest. The study was then extended to test the effect of attached fatty acid by including custom-made LPC (22:6) and LPC (18:0). Different groups of control rats for each set of experiment for accurate assessment were used. Rats were randomized into each group (n=12). Baseline characteristics of rats were not different between the groups in each set of experiment.
The LPC species mixed with 0.5% bovine serum albumin (BSA) in phosphate-buffered saline (0.5 mL) was injected over 1 minute via the femoral vein cannula beginning 1 minute after ROSC, with vehicle group injected with only BSA. 6 mg/kg of LPC was injected, because this dosage preserved LPC level in post-resuscitation plasma for 2 hours after 10-minute cardiac arrest. The purities of the injected LPC species were over 98%.
Survival was followed for 72 hours with brain function evaluated in a blinded manner using the modified neurologic deficit score (mNDS) after resuscitation for surviving rats. The mNDS is expressed as percentage, with 100% representing perfect score.
Kaplan-Meier curves compared survival between the LPC and vehicle groups using the Wilcoxon test. For phospholipids levels, Mann-Whitney U test was used to compare two independent groups. Repeated measures analysis of variance was used to compare the vital signs between two groups. Spearman correlation coefficients were calculated to evaluate the correlation between blood pH and plasma LPC levels. For changes in plasma LPC levels postreperfusion, we performed Jonckheere-Terpstra test. Statistical analyses were performed using the JMP software (Version 14.2, SAS Institute, Cary, NC). p values of less than 0.05 were considered statistically significant. Data were expressed as the mean±se of the mean.

neuronal cells = details: rats supplemented with LPC; cited from earlier work
lung = experiment: Lung wet-to-dry weight ratio after cardiac arrest; type: in vivo, rat
Procedure: (§2) The beneficial effects of LPC (18:2), LPC(20:4), and LPC (16:0) for their beneficial effects using the same cardiac arrest model were also tested. […] Furthermore, none of the LPC (18:2) treated rats were able to walk whereas 40 to 50% of LPC (22:6) and LPC (18:1) treated rats were able to walk.

heart = experiment: Heart ejection fraction at 2 h after resuscitation; type: in vivo, rat; details: 10 min cardiac arrest per FIG. 13 legend
Procedure: as §2

[4] = diet supplemented with LPC; cited from earlier work
IL-10 = experiment: Plasma IL-10 level, 10 minutes of asphyxia-induced cardiac arrest rat model; type: in vivo; details: after 10 minutes of cardiac arrest
Procedure: (§3) Using the 10 minutes of asphyxia-induced cardiac arrest rat model, supplementing LPC (18:1) decreased inflammatory IL-6′ levels and increased the anti-inflammatory IL-10 levels in rat plasma after 10 minutes of cardiac arrest (FIG. 15A and FIG. 15B).

IL-6 = experiment: Plasma IL-6 level, 10 minutes of asphyxia-induced cardiac arrest rat model; type: in vivo; details: after 10 minutes of cardiac arrest
Procedure: as §3

Row | Molecule | plasma troponin I level [2] | rat survival for 72 hr after resuscitation (Kaplan-Meier) [3] | number of neurons in the hippocampus (Nissl staining), % of control values [1] [%] | degenerating cells in the cortex (FJB staining), fold increase compared with control value [1] | modified neurologic deficit score (mNDS) at 24 hours [3] [%] | modified neurologic deficit score (mNDS) at 72 hours [3] [%] | other results
1 | lysophosphatidylcholine (18:0) [LPC (18:0)] | only the LPC Combination showed a decrease | no improved outcomes |  |  |  |  | effect on neuronal cellular morphology [1]: minimal effect
2 | CCCCCCCCCCCCCC(=O)OC[C@@H](O)COP(=O)([O-])OCC[N+](C)(C)C [LPC (14:0)] |  |  |  |  |  |  | protection of neuronal cells after brain ischemia (neuronal cells): provided protecting to neuronal cells
3 | lysophosphatidylcholine (18:2) [LPC (18:2)] |  |  |  |  |  |  | lung wet-to-dry ratio (lung): Reduced; heart ejection fraction (heart): improved; neuroprotective effect (mNDS at 48 hours and 72 hours) ([3]; 10 min cardiac arrest per FIG. 12 legend): not as good as LPC (18:1) or LPC (22:6); rat survival (Kaplan-Meier) ([3]; "same cardiac arrest model", 10 min cardiac arrest per FIG. 11 legend): significantly improve survival; treated rats able to walk ([3]; after cardiac arrest): none
4 | lysophosphatidylcholine (22:6) [LPC (22:6)] | only the LPC Combination showed a decrease | improved rat survival | 88 | decreased to a three-fold increase | 51 | 86 | cognitive functions [4]: improved their cognitive functions
5 | lysophosphatidylcholine (18:1) [LPC (18:1)] | only the LPC Combination showed a decrease | significantly improved rat survival | 86 | decreased to a three-fold increase | 66 | 76 | anti-inflammatory IL-10 levels in rat plasma (IL-10): increased; rat survival (Kaplan-Meier) [2]: most significantly improved rat survival; return of the SSEP signal (brain function) [2]: did not happen; inflammatory IL-6 levels in rat plasma (IL-6): decreased

Reference: patent publication US20250000882A1, “LYSOPHOSPHATIDYLCHOLINE COMBINATIONS AS A THERAPY TO TREAT CARDIAC ARREST” (THE FEINSTEIN INSTITUTES FOR MEDICAL RESEARCH, priority 2021, published 2025)
